Test results taken from patent US20240051985A1, “METTL3 MODULATORS” (ACCENT THERAPEUTICS, INC., priority 2020, published 2024).

Columns and labels:
METTL3/METTL14 = METTL3/METTL14 (Homo sapiens, UniProt Q86U44); assay: METTL3-14 standard enzyme assay (3H-SAM flashplate); conditions: Table 4; METTL3 biochemical assay
Outline: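 METTL3/METTL14 (2.5 nM) preincubated 5 min, then reacted with 3′-biotinylated RNA UCUGGACUAAA (100 nM) and 3H-SAM (100 nM) for 30 min at ambient temperature in 20 mM HEPES pH 7.5, 50 mM KCl, 250 μM MgCl2, 1 mM DTT. Quenched with 15 μM cold SAM; product captured on streptavidin flashplates, scintillation counted.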

PRMT5-MEP50 = PRMT5-MEP50 (Homo sapiens, UniProt O14744); assay: PRMT5 assay (3H-SAM flashplate); conditions: Table 4; PRMT5 biochemical assay
PRMT5-MEP50, sequence (O14744 whole entry): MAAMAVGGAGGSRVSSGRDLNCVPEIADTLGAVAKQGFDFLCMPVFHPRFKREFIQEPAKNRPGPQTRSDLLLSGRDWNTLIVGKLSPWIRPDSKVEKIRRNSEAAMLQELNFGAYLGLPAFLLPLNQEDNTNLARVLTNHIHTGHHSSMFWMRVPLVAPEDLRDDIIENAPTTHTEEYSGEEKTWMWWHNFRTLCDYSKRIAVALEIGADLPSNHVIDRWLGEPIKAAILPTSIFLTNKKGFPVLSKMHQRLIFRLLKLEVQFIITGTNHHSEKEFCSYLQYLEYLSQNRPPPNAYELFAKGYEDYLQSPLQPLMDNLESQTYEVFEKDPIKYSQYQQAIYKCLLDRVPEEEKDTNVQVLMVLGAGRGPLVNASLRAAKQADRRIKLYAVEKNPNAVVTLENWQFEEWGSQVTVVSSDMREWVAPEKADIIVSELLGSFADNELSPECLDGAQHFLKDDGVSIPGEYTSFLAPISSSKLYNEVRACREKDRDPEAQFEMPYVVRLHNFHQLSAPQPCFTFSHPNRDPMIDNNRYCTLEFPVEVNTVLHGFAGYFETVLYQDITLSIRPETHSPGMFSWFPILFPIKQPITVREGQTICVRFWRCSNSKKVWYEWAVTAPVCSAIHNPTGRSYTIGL
PRMT5-MEP50, sequence (Q9BQA1 whole entry partner): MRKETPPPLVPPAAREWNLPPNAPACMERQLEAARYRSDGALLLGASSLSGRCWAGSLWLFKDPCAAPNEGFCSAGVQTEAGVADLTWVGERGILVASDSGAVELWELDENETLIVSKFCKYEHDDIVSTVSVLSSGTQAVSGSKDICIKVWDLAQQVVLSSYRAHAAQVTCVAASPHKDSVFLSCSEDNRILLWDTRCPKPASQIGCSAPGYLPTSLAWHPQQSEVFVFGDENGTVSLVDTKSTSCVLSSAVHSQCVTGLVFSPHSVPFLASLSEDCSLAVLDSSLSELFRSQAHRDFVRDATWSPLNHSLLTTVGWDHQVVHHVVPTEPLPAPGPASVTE
Outline: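 PRMT5-MEP50 at 2.5 nM, preincubated 5 min with compound in 20 mM Tris-HCl pH 8.0, 1 mM DTT, 0.01% Tween at ambient temperature. Biotinylated acetylated histone H4 peptide (100 nM) and 3H-SAM (250 nM) react 60 min, quenched with 15 μM cold SAM; methylation captured on streptavidin flashplates and scintillation-counted.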

FLT3 = target: T1, FLT3 (Homo sapiens, UniProt P36888); assay: FLT3 LanthaScreen assay; format: biochemical; conditions: Table 4
T1 sequence (P36888 27-993): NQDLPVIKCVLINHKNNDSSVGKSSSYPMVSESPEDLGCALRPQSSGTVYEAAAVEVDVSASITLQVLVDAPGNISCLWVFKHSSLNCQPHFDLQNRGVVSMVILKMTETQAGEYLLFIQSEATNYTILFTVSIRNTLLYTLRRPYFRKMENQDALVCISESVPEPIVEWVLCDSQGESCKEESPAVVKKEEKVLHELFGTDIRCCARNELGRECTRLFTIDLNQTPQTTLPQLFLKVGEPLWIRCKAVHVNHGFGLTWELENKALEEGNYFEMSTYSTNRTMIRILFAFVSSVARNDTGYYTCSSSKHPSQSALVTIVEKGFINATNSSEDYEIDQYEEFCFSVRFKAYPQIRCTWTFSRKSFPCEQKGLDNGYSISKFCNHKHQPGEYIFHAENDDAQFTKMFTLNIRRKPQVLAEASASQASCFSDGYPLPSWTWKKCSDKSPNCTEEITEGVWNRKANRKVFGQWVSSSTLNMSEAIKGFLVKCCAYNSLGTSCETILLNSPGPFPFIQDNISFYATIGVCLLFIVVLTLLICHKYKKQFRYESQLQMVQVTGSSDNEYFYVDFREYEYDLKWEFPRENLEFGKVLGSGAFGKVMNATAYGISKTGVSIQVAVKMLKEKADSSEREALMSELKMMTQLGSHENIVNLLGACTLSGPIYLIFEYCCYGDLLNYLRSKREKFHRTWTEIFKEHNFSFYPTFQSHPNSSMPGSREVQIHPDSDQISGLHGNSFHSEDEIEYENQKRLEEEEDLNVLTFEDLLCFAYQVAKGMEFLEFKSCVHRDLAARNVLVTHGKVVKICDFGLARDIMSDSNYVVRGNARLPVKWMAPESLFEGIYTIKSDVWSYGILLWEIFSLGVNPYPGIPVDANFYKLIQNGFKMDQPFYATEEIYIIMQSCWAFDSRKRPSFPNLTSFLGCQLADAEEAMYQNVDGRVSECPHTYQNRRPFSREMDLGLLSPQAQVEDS
Protocol: (§1) FLT3/FLT3-ITD LanthaScreen Assays
(§2) Assays were performed in a 10 μl-volume in 384-well polypropylene microplates (Perkin Elmer Proxiplate, cat. No. 6059480) at ambient temperature. Optimized 1× assay buffer was 50 mM Hepes pH 7.5, 2 mM DTT, 0.01% Tween, 0.01% BSA, 10 mM MgCl2. For compound screening FLT3 (final concentration, f.c.=[…]) or FLT3-ITD (f.c.=[…]) was added using a Multidrop Combi (ThermoFisher Scientific, Waltham, MA) and preincubated for 10 min. Reactions were started by adding fluorescein-poly GT (f.c.=200 nM) and ATP (f.c.=57 μM) substrates. Reactions proceeded for 40 minutes. The reactions were stopped with a detection mixture of EDTA (f.c.=20 mM) and terbium-conjugated anti-phoso tyrosine antibody pY20 (f.c.=2 nM). The plates were sealed and read on an Envision (PerkinElmer, Waltham, MA) using 340 nm excitation and emission reads at 495 and 520 nM.

FLT3-ITD = target: T2, FLT3-ITD (Homo sapiens, UniProt P36888); assay: FLT3-ITD LanthaScreen assay; format: biochemical; conditions: Table 4
T2 sequence (P36888 1-993): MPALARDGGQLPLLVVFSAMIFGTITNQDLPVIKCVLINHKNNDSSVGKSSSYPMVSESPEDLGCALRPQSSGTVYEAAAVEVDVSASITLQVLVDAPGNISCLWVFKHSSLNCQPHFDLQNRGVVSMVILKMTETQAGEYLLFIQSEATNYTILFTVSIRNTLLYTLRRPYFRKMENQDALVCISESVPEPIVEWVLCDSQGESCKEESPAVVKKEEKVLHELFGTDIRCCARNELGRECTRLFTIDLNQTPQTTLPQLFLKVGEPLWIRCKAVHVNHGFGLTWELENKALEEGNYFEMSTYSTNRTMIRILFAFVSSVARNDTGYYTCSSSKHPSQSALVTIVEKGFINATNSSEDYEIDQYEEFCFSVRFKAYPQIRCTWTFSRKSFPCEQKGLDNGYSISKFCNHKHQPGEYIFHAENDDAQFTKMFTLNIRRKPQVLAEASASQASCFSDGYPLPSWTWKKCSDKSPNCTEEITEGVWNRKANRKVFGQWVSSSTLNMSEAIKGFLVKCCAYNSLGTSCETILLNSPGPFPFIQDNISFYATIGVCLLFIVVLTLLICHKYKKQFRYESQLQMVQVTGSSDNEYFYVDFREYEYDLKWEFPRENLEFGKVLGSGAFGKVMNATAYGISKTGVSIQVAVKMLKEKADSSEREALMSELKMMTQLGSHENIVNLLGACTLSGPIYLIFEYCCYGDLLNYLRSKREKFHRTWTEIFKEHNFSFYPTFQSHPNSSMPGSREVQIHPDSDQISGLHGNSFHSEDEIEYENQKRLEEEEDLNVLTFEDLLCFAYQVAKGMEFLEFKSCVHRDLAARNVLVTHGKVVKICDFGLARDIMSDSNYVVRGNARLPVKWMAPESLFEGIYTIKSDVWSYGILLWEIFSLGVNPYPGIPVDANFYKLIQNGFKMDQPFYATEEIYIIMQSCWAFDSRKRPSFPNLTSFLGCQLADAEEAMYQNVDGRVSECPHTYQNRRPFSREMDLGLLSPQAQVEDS
Protocol: as §1, §2

METTL3/METTL14, sequence (Q86U44 whole entry, species assumed): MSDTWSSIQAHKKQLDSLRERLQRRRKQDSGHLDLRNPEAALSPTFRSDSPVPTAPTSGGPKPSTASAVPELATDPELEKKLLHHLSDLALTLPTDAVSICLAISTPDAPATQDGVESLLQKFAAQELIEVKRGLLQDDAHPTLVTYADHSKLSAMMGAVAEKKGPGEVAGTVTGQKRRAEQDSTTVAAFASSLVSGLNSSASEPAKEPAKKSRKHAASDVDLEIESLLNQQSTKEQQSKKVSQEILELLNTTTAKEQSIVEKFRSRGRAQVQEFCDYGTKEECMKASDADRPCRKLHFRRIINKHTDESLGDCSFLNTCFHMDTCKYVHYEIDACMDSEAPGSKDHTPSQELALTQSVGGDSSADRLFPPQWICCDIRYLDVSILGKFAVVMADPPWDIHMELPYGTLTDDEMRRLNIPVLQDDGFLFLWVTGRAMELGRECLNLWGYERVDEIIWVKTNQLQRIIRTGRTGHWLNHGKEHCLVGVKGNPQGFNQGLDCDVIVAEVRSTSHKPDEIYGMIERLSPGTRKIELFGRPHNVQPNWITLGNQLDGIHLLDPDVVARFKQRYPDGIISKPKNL
METTL3/METTL14, sequence (Q9HCE5 whole entry partner, species assumed): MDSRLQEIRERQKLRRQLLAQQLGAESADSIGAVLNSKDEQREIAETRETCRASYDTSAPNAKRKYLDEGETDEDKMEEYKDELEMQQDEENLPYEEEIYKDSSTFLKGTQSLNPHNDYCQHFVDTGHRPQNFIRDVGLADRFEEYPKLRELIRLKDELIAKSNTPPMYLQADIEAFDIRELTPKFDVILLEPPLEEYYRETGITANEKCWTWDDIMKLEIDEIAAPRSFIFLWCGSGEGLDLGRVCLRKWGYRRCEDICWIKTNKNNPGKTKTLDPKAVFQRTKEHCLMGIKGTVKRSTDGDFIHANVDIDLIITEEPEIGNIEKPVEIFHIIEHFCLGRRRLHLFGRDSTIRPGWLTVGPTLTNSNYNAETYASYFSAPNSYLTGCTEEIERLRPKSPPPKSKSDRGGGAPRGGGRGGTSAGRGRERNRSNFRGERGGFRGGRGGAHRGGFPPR

Row | Structure (SMILES) | IC50 (METTL3/METTL14) [µM] | IC50 (PRMT5-MEP50) [µM] | IC50 (FLT3) [µM] | IC50 (FLT3-ITD) [µM]
1 | CN1CC[C@H](NC(=O)[C@H]2O[C@@H](n3cc(-c4ccn(C)n4)c4c(N)ncnc43)[C@H](O)[C@@H]2O)C1 [Compound I-203] | 0.1 to 1 | 0.01 to 0.1 | ≥ 1 | ≥ 1
2 | CN1CCC(N(CCOCCO)C(=O)[C@H]2O[C@@H](n3cc(-c4ccn(C)n4)c4c(N)ncnc43)[C@H](O)[C@@H]2O)CC1 [Compound I-177] | ≥ 1 | 0.01 to 0.1 | ≥ 1 | ≥ 1
3 | CN1CCC(NC(=O)[C@H]2C[C@@H](n3cc(-c4ccn(C)n4)c4c(N)ncnc43)[C@H](O)[C@@H]2O)CC1 [Compound I-44, (1S,2R,3S,4R)-4-[4-amino-5-(1-methyl-1H-pyrazol-3-yl)-7H-pyrrolo[2,3-d]pyrimidin-7-yl]-2,3-dihydroxy-N-(1-methylpiperidin-4-yl)cyclopentane-1-carboxamide] | 0.1 to 1 | 0.01 to 0.1 | ≥ 1 | ≥ 1
4 | CC(O)CN(C(=O)[C@H]1O[C@@H](n2cc(-c3ccn(C)n3)c3c(N)ncnc32)[C@H](O)[C@@H]1O)C1CCN(C)CC1 (stereo partly drawn) [Compound I-147] | ≥ 1 | < 0.01 | ≥ 1 | ≥ 1
5 | Cn1ccc(-c2cn([C@@H]3O[C@H](C(=O)N[C@H]4CC[C@@](C)(O)CC4)[C@@H](O)[C@H]3O)c3ncnc(N)c23)n1 [Compound I-209] | 0.1 to 1 | ≥ 1 | ≥ 1 | ≥ 1
6 | CN1[C@@H]2CC[C@H]1C[C@H](NC(=O)[C@H]1O[C@@H](n3cc(-c4ccn(C)n4)c4c(N)ncnc43)[C@H](O)[C@@H]1O)C2 [Compound I-205] | 0.1 to 1 | 0.1 to 1 | ≥ 1 | ≥ 1
7 | CC1CC(NC(=O)[C@H]2O[C@@H](n3cc(-c4ccn(C)n4)c4c(N)ncnc43)[C@H](O)[C@@H]2O)CCN1 (stereo in doubt) [Compound I-211] | 0.1 to 1 | 0.1 to 1 | ≥ 1 | ≥ 1
8 | CN1CCC(NC(=O)[C@H]2O[C@@H](n3cc(-c4ccn(C)n4)c4c(N)ncnc43)[C@H](O)[C@@H]2O)CC1=O (stereo partly drawn) [Compound I-186] | ≥ 1 | ≥ 1 | ≥ 1 | ≥ 1
9 | CNC(=O)Nc1cc(NC(=O)[C@H]2O[C@@H](n3cc(-c4ccn(C)n4)c4c(N)ncnc43)[C@H](O)[C@@H]2O)ccn1 [Compound I-143] | 0.1 to 1 | 0.01 to 0.1 | ≥ 1 | ≥ 1
10 | Cn1ccc(-c2cn([C@@H]3O[C@H](C(=O)N4CCC[C@@H](NS(C)(=O)=O)C4)[C@@H](O)[C@H]3O)c3ncnc(N)c23)n1 [Compound I-151] | ≥ 1 | ≥ 1 | ≥ 1 | ≥ 1
11 | Cn1ccc(-c2cn([C@@H]3O[C@H](C(=O)NC4CCc5nc[nH]c5C4)[C@@H](O)[C@H]3O)c3ncnc(N)c23)n1 (stereo partly drawn) [Compound I-194] | 0.01 to 0.1 | 0.1 to 1 | ≥ 1 | ≥ 1
12 | Cn1ccc(-c2cn([C@@H]3O[C@H](C(=O)NC4CCNC(C)(C)C4)[C@@H](O)[C@H]3O)c3ncnc(N)c23)n1 (stereo partly drawn) [Compound I-189] | 0.1 to 1 | 0.01 to 0.1 | ≥ 1 | ≥ 1
13 | Cn1ccc(-c2cn([C@@H]3O[C@H](C(=O)NC4CCN(CCO)CC4)[C@@H](O)[C@H]3O)c3ncnc(N)c23)n1 [Compound I-178] | 0.1 to 1 | 0.01 to 0.1 | ≥ 1 | ≥ 1
14 | Cn1ccc(-c2cn([C@@H]3O[C@H](C(=O)NC[C@H]4CC[C@H](O)CC4)[C@@H](O)[C@H]3O)c3ncnc(N)c23)n1 [Compound I-159] | ≥ 1 | ≥ 1 | ≥ 1 | ≥ 1
15 | C[C@H](NC(=O)[C@H]1O[C@@H](n2cc(-c3ccn(C)n3)c3c(N)ncnc32)[C@H](O)[C@@H]1O)C1CCNCC1 [Compound I-195] | 0.1 to 1 | 0.1 to 1 | ≥ 1 | ≥ 1
16 | COC(=O)[C@@H](N)CCNC(=O)[C@H]1O[C@@H](n2cc(-c3ccn(C)n3)c3c(N)ncnc32)[C@H](O)[C@@H]1O [Compound I-42, methyl (2S)-2-amino-4-{[(2S,3S,4R,5R)-5-[4-amino-5-(1-methyl-1H-pyrazol-3-yl)-7H-pyrrolo[2,3-d]pyrimidin-7-yl]-3,4-dihydroxyoxolan-2-yl]formamido}butanoate] | ≥ 1 | 0.1 to 1 | ≥ 1 | ≥ 1
17 | CNc1ccc2ccc(NC(=O)[C@H]3O[C@@H](n4cc(-c5ccn(C)n5)c5c(N)ncnc54)[C@@H](F)[C@@H]3O)cc2n1 [Compound I-61] | < 0.01 | 0.01 to 0.1 | 0.1 to 1 | 0.1 to 1
18 | Cn1ccc(-c2cn([C@@H]3O[C@H](C(=O)N[C@H]4CCCNC4)[C@@H](O)[C@H]3O)c3ncnc(N)c23)n1 [Compound I-219] | 0.1 to 1 | 0.01 to 0.1 | ≥ 1 | ≥ 1
19 | Cn1ccc(-c2cn([C@@H]3O[C@H](C(N)=O)[C@@H](O)[C@H]3O)c3ncnc(N)c23)n1 [Compound I-54] | ≥ 1 | 0.1 to 1 | ≥ 1 | ≥ 1
20 | Cn1ccc(-c2cn([C@@H]3O[C@H](C(=O)NC4CC5(CNC5)C4)[C@@H](O)[C@H]3O)c3ncnc(N)c23)n1 [Compound I-210] | 0.1 to 1 | 0.01 to 0.1 | ≥ 1 | ≥ 1
21 | Cn1ccc(-c2cn([C@@H]3O[C@H](C(=O)N4CCCC(NS(C)(=O)=O)C4)[C@@H](O)[C@H]3O)c3ncnc(N)c23)n1 (stereo in doubt) [Compound I-185] | ≥ 1 | 0.1 to 1 | ≥ 1 | ≥ 1
